{
  "source": "patent US9234006B2",
  "about": "“Compounds” (Novacta Biosystems Limited, priority 2011, dated 2016)",
  "key": {"P. aeruginosa ATCC27853": {"system": "P. aeruginosa ATCC27853", "assay": "MIC susceptibility testing, broth microdilution in CaMHB", "format": "cell-based, Pseudomonas aeruginosa", "outline": "(§1)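 Colonies from fresh MHA grown overnight in CaMHB at 37° C, 250 rpm for 18-20 hours, diluted 100-fold and regrown to OD600 0.2-0.3 […]. Actively growing culture diluted 100-fold in fresh medium as inoculum; assays run in duplicate.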"}, "A. baumannii ATCC19606": {"system": "A. baumannii ATCC19606", "assay": "MIC susceptibility testing, broth microdilution in CaMHB", "format": "cell-based, Acinetobacter baumannii", "outline": "as §1"}, "HK-2 cell line": {"system": "HK-2 cell line", "conditions": "24 h incubation, resazurin reduction; Table 7A; footnote c: solubility issues noted at top concentration", "experimental": "The renal cell toxicity of the compounds was assessed in an in vitro assay using the HK-2 cell line, an immortalized proximal tubule cell line derived from a normal human kidney. The endpoint to describe the toxicity of the compounds was the reduction of resazurin correlating with the metabolic activity of the cells.\nCells were cultured in 150 cm^2 flasks in 25 mL supplemented KSF (with 5 ng/mL EGF and 50 μg/mL BPE). Cells were maintained at 70% confluence with a maximum of 25 passages. Day 1: Media was removed and cells were washed with 10 ml DPBS. […] After 1 to 2 minutes incubation, 14 ml media was added to the flask to inactivate the trypsin. The cell suspension was transferred to a centrifuge tube and the cells pelleted at 1000 rpm for 6 minutes. The cell pellet was then resuspended in fresh media supplemented with EGF and BPE. […] 7500 cells were dispensed in each well in a volume of 160 μl and incubated at 37° C. for 24 h.\nDay 2: Test compounds were prepared directly into the media. […] The microtiter plates were removed from the incubator and the media replaced with 100 μl of the dilutions of the compound solution. Every set of concentration was done in triplicate, and positive and negative controls were added to each plate. The plates were then incubated for 24 h at 37° C. with 5% CO2 in a humidified atmosphere.\nDay 3: The reagent containing the resazurin (CellTiter-Blue, Promega) was diluted in PBS (1:4) and added at 20% (v/v) to each well. The plates were then incubated at 37° C. for 2 h before the fluorescent reduction product was detected.\nMedia only background values were subtracted before the data was analysed using GraphPad Prism. Compound concentration values were plotted as log values to enable a dose-response curve to be fitted and IC50 values determined (Table 7).\nThe renal cell toxicity of the additional example compounds was assessed in an in vitro assay using the HK-2 cell as described in the example above."}, "E. coli ATCC25922": {"system": "E. coli ATCC25922", "assay": "MIC susceptibility testing, broth microdilution in CaMHB", "format": "cell-based, Escherichia coli", "outline": "as §1"}, "K. pneumoniae ATCC 4352": {"system": "K. pneumoniae ATCC 4352", "assay": "MIC susceptibility testing, broth microdilution in CaMHB", "format": "cell-based, Klebsiella pneumoniae", "outline": "as §1"}, "P. aeruginosa ATCC10145": {"system": "P. aeruginosa ATCC10145", "assay": "MIC susceptibility testing, broth microdilution in CaMHB", "format": "cell-based, Pseudomonas aeruginosa", "outline": "as §1"}, "P. aeruginosa ATCC 9721": {"system": "P. aeruginosa ATCC 9721", "assay": "MIC susceptibility testing, broth microdilution in CaMHB", "format": "cell-based, Pseudomonas aeruginosa", "outline": "as §1"}, "[1]": {"system": "P. aeruginosa ATCCCRM-9027", "assay": "MIC susceptibility testing, broth microdilution in CaMHB", "format": "cell-based, Pseudomonas aeruginosa", "outline": "as §1"}, "A. baumannii NCTC13423": {"system": "A. baumannii NCTC13423", "assay": "MIC susceptibility testing, broth microdilution in CaMHB", "format": "cell-based, Acinetobacter baumannii", "outline": "as §1"}, "A. baumannii NCTC7844": {"system": "A. baumannii NCTC7844", "assay": "MIC susceptibility testing, broth microdilution in CaMHB", "format": "cell-based, Acinetobacter baumannii", "outline": "as §1"}, "A. baumannii ATCCBAA-747": {"system": "A. baumannii ATCCBAA-747", "assay": "MIC susceptibility testing, broth microdilution in CaMHB", "format": "cell-based, Acinetobacter baumannii", "outline": "as §1"}, "[2]": {"parameters": "species or system rats", "conditions": "rat, in vivo, 8 mg/kg", "experimental": "Colistin and the example compounds were prepared in saline. Compounds were introduced via the jugular canula twice a day 7 hours apart for seven days. […] The dose regimen is set out in Table 8 below."}, "E. coli NCTC12900": {"system": "E. coli NCTC12900", "assay": "MIC susceptibility testing, broth microdilution in CaMHB", "format": "cell-based, Escherichia coli", "outline": "as §1"}, "E. coli NCTC9001": {"system": "E. coli NCTC9001", "assay": "MIC susceptibility testing, broth microdilution in CaMHB", "format": "cell-based, Escherichia coli", "conditions": "Table 4A, different batches of cation-adjusted Muller-Hinton broth", "outline": "as §1"}, "E. coli ATCC700928": {"system": "E. coli ATCC700928", "assay": "MIC susceptibility testing, broth microdilution in CaMHB", "format": "cell-based, Escherichia coli", "outline": "as §1"}, "K. pneumoniae NCTC7427": {"system": "K. pneumoniae NCTC7427", "assay": "MIC susceptibility testing, broth microdilution in CaMHB", "format": "cell-based, Klebsiella pneumoniae", "outline": "as §1"}, "K. pneumoniae NCTC8172": {"system": "K. pneumoniae NCTC8172", "assay": "MIC susceptibility testing, broth microdilution in CaMHB", "format": "cell-based, Klebsiella pneumoniae", "outline": "as §1"}, "[3]": {"system": "K. pneumoniae ATCCBAA-1706", "assay": "MIC susceptibility testing, broth microdilution in CaMHB", "format": "cell-based, Klebsiella pneumoniae", "conditions": "Table 4", "outline": "as §1"}, "[4]": {"conditions": "Table 4A, different batches of cation-adjusted Muller-Hinton broth"}, "[5]": {"conditions": "K. pneumoniae ATCC4352, Table 4A, different batches of cation-adjusted Muller-Hinton broth"}},
  "note": "Structures can show the parent of a compound that is named as a salt. Where a SMILES comes first, the peptide text is derived from it. Bridges are numbered along the chain shown (N, C = ends). [ ]: non-standard residue; d: D form. The star is where a group is joined. ξ: configuration not given here. ξβ3hGly(cHex) = NC(CC(=O)*)C1CCCCC1; Butanoyl(3ξ-OH) = CC(O)CC(=O)*; Thr(3ξ) = CC(O)[C@H](N)C(=O)O; Dab = NCC[C@H](N)C(=O)O",
  "data": [
    {"smiles": "CC(C)C[C@@H]1NC(=O)[C@@H](Cc2ccccc2)NC(=O)[C@H](CCN)NC(=O)[C@@H](NC(=O)[C@H](CCN)NC(=O)[C@@H](NC(=O)CC(C)O)C(C)O)CCNC(=O)[C@H](C(C)O)NC(=O)[C@H](CCN)NC(=O)[C@H](CCN)NC1=O", "note": "(stereo partly drawn) [Example 22, 3-(R,S)-3-Hydroxybutanoyl polymyxin B nonapeptide] ({Butanoyl(3ξ-OH)}-[Thr(3ξ)][Dab][Dab][Dab][dF]L[Dab][Dab][Thr(3ξ)]; lactam 3-C)", "values": [
      {"measurement": "MIC", "setting": "P. aeruginosa ATCC27853; [4]", "value": 0.5, "unit": "micrograms/mL"},
      {"measurement": "MIC", "setting": "A. baumannii ATCC19606; [4]", "value": ">32", "unit": "micrograms/mL"},
      {"measurement": "IC50 HK-2 cells", "setting": "HK-2 cell line", "value": "500^c μg/mL"},
      {"measurement": "MIC", "setting": "E. coli ATCC25922; [4]", "value": 4, "unit": "micrograms/mL"},
      {"measurement": "MIC", "setting": "K. pneumoniae ATCC 4352; [5]", "value": 8, "unit": "micrograms/mL"}
    ]},
    {"smiles": "CC(C)C[C@@H]1NC(=O)[C@@H](Cc2ccccc2)NC(=O)[C@H](CCN)NC(=O)[C@@H](NC(=O)[C@H](CCN)NC(=O)[C@@H](NC(=O)CC(N)C2CCCCC2)C(C)O)CCNC(=O)[C@H](C(C)O)NC(=O)[C@H](CCN)NC(=O)[C@H](CCN)NC1=O", "note": "(stereo partly drawn) [Example 14, [3(R,S)-3-Amino-3-cyclohexanepropanoyl] Polymyxin B Nonapeptide, Sulphate Salt] ({ξβ3hGly(cHex)}-[Thr(3ξ)][Dab][Dab][Dab][dF]L[Dab][Dab][Thr(3ξ)]; lactam 3-C)", "values": [
      {"measurement": "MIC", "setting": "P. aeruginosa ATCC10145; Table 4", "value": 0.25, "unit": "micrograms/mL"},
      {"measurement": "MIC", "setting": "P. aeruginosa ATCC10145; [4]", "value": 0.5, "unit": "micrograms/mL"},
      {"measurement": "MIC", "setting": "P. aeruginosa ATCC 9721; P. aeruginosa ATCC 9721, Table 4", "value": 0.25, "unit": "micrograms/mL"},
      {"measurement": "MIC", "setting": "P. aeruginosa ATCC 9721; P. aeruginosa ATCC9721, Table 4A, different batches of cation-adjusted Muller-Hinton broth", "value": 0.25, "unit": "micrograms/mL"},
      {"measurement": "MIC", "setting": "[1]; P. aeruginosa AATCCRM 9027, Table 4A, different batches of cation-adjusted Muller-Hinton broth", "value": 0.125, "unit": "micrograms/mL"},
      {"measurement": "MIC", "setting": "[1]; P. aeruginosa ATCCCRM-9027, Table 4", "value": 0.25, "unit": "micrograms/mL"},
      {"measurement": "MIC", "setting": "P. aeruginosa ATCC27853; Table 4", "value": 0.5, "unit": "micrograms/mL"},
      {"measurement": "MIC", "setting": "P. aeruginosa ATCC27853; [4]", "value": 0.25, "unit": "micrograms/mL"},
      {"measurement": "MIC", "setting": "A. baumannii NCTC13423; Table 4", "value": 0.06, "unit": "micrograms/mL"},
      {"measurement": "MIC", "setting": "A. baumannii NCTC13423; [4]", "value": 0.125, "unit": "micrograms/mL"},
      {"measurement": "MIC", "setting": "A. baumannii NCTC7844; Table 4", "value": 0.5, "unit": "micrograms/mL"},
      {"measurement": "MIC", "setting": "A. baumannii NCTC7844; [4]", "value": 0.5, "unit": "micrograms/mL"},
      {"measurement": "MIC", "setting": "A. baumannii ATCCBAA-747; Table 4", "value": 0.5, "unit": "micrograms/mL"},
      {"measurement": "MIC", "setting": "A. baumannii ATCCBAA-747; [4]", "value": 0.5, "unit": "micrograms/mL"},
      {"measurement": "MIC", "setting": "A. baumannii ATCC19606; Table 4", "value": 0.5, "unit": "micrograms/mL"},
      {"measurement": "levels of the renal biomarker NAG in urine compared to Colistin at the same dose regimen", "setting": "[2]", "value": "significantly reduced levels"},
      {"measurement": "levels of the renal biomarker albumin in urine compared to Colistin at the same dose regimen", "setting": "[2]", "value": "significantly reduced levels"},
      {"measurement": "levels of the renal biomarker cystatin C in urine compared to Colistin at the same dose regimen", "setting": "[2]", "value": "significantly reduced levels"},
      {"measurement": "MIC", "setting": "E. coli NCTC12900; Table 4", "value": 0.5, "unit": "micrograms/mL"},
      {"measurement": "MIC", "setting": "E. coli NCTC12900; [4]", "value": 4, "unit": "micrograms/mL"},
      {"measurement": "MIC", "setting": "E. coli NCTC9001", "value": 4, "unit": "micrograms/mL"},
      {"measurement": "MIC", "setting": "E. coli ATCC700928; Table 4", "value": 0.25, "unit": "micrograms/mL"},
      {"measurement": "MIC", "setting": "E. coli ATCC700928; [4]", "value": 2, "unit": "micrograms/mL"},
      {"measurement": "MIC", "setting": "E. coli ATCC25922; Table 4", "value": 0.5, "unit": "micrograms/mL"},
      {"measurement": "MIC", "setting": "E. coli ATCC25922; [4]", "value": 2, "unit": "micrograms/mL"},
      {"measurement": "MIC", "setting": "K. pneumoniae NCTC7427; Table 4", "value": 0.25, "unit": "micrograms/mL"},
      {"measurement": "MIC", "setting": "K. pneumoniae NCTC7427; [4]", "value": 0.5, "unit": "micrograms/mL"},
      {"measurement": "MIC", "setting": "K. pneumoniae NCTC8172; Table 4", "value": 1, "unit": "micrograms/mL"},
      {"measurement": "MIC", "setting": "K. pneumoniae NCTC8172; [4]", "value": ">32", "unit": "micrograms/mL"},
      {"measurement": "MIC", "setting": "[3]", "value": 0.25, "unit": "micrograms/mL"},
      {"measurement": "MIC", "setting": "K. pneumoniae ATCC 4352; K. pneumoniae ATCC 4352, Table 4", "value": 1, "unit": "micrograms/mL"},
      {"measurement": "MIC", "setting": "K. pneumoniae ATCC 4352; [5]", "value": 0.5, "unit": "micrograms/mL"}
    ]}
  ]
}
